Entries after “also recorded” stand apart in the source; their conditions may differ.

Results on two compounds are retold here after patent US20190072567A1, “METHOD OF DETECTING LC3B EXPRESSION IN EXOSOMES EXTRACTED FROM LIQUID BIOLOGICAL SAMPLES” (University of Cincinnati, priority 2017, published 2019).

The subject of assay [1] is HEK293 cells. As to the kind of experiment: Annexin V cell survival assay by flow cytometry. Type of assay: cell-based, human. The method, then: HEK293 cells were plated in 10 cm culture dishes in 10% FBS DMEM media. Media was replaced with dFBS DMEM once 40% confluence was reached and cells were incubated for 24 h. Cells were treated with the following concentrations of agents: Gem 20 μM concentration (Gem^20), CQ 10 μM (CQ^10) and 20 μM (CQ^20) concentrations, and in combinations (wherein Gem was administered at 20 μM but CQ concentration varied) as follows: Gem+CQ^10 and Gem+CQ^20. Cells were treated in fresh dFBS DMEM media for 16 h. Cells and media were collected, centrifuged, and washed and stained with propedium iodide (PI) and annexin V prior to running samples. Cell cycle analysis was performed using fresh cells on a FACS Calibur (Becton Dickinson) after incubation with 25 μg/ml PI. Cell cycle phases were analyzed with the CellQuest-Pro software program (Becton Dickinson).
The effect of autophagy inhibitor CQ was examined via a cell survival assay by flow cytometry using annexin V (FIG. 8).
HEK293 cells were plated in 6 well cell culture plates and treated with control (A), Gem 20 μM (B), CQ 10 μM (C), CQ 20 μM (D), Gem 20 μM+CQ 10 μM (E), and Gem 20 μM+CQ 20 μM (F). Cells treated with CQ at both concentrations had increased expression of phosphatidyl serine compared to control from 10% up to almost 17% (C,E). Cells treated with Gem 20 μM alone had only 8.2% apoptotic cells (B).

The test system of assay [2] is LC3B. Kind of assay: Western blot of LC3B in exosomes extracted from MiaPaCa2 cells. The format is cell-based, human.
Protocol: U251, a human glioblastoma cell line, MiaPaCa2, a human pancreatic carcinoma cell line, and HEK293, a human embryonic kidney cell line. […] Cells were maintained in DMEM culture media supplemented with 10% fetal bovine serum (FBS), antimycotic, and L-glutamine. At 40% confluence, culture dishes were washed twice with PBS and media was replaced with 10% exosome depleted FBS (dFBS). DMEM media (50 ml EXO-FBS™ Exosome Depleted FBS media, System Biosciences) and incubated to settle for 24 h. After 24 h, culture dishes were washed with PBS and new dFBS DMEM media was added and treated with chloroquine diphosphate salt (Sigma Aldrich, UK) and incubated. […] Incubation varied according to plate confluency, CQ concentration, and expected number of exosomes secreted by the cell line. Media was collected and used for exosome extraction directly after incubation period concluded.
Detection of LC3B expression in isolated exosomes was completed using western blotting standard protocols. Briefly, gel electrophoresis was used to separate proteins by size and/or structure. Proteins were then transferred to a membrane (polyvinylidene fluoride or nitrocellulose are suitable for use) and blocked with blocking buffer to prevent non-specific antibody binding. Membranes were incubated with anti-LC3B antibody to target LC3B-I and LC3B-II. LI-COR detection (LI-COR Biotechnology, USA) was employed to visualize target proteins. […] CD9 was used as a loading control and was detected using rabbit monoclonal antibody (Cell Signaling Inc., USA). […]
Assay [3] deals with LC3B. Kind of assay: Western blot of LC3B in U251 cells and in exosomes extracted from cell media. The format is cell-based, human. The settings on record: for LC3B-II band in cells: cells treated with chloroquine, whole cell / total cell extracts (U251); for LC3B-II band in exosomes: exosomes isolated from U251 cells treated with CQ. The source says: Three cell lines were used in the studies disclosed herein. U251, a human glioblastoma cell line, MiaPaCa2, a human pancreatic carcinoma cell line, and HEK293, a human embryonic kidney cell line. A variety of cell lines were selected in order to compare results for cells having different baseline autophagic activities. Cells were maintained in DMEM culture media supplemented with 10% fetal bovine serum (FBS), antimycotic, and L-glutamine. At 40% confluence, culture dishes were washed twice with PBS and media was replaced with 10% exosome depleted FBS (dFBS). DMEM media (50 ml EXO-FBS™ Exosome Depleted FBS media, System Biosciences) and incubated to settle for 24 h. After 24 h, culture dishes were washed with PBS and new dFBS DMEM media was added and treated with chloroquine diphosphate salt (Sigma Aldrich, UK) and incubated. Incubation period was 48 h for western blot on HEK293 plates and 72 h for western blot of U251 cells. Incubation varied according to plate confluency, CQ concentration, and expected number of exosomes secreted by the cell line. Media was collected and used for exosome extraction directly after incubation period concluded. Exosome Extraction from Patient Plasma
Exosomes were extracted from freshly collected cell culture media using exosome precipitation reagent (Total Exosome Isolation from cell culture media, Invitrogen by Life Technologies) following manufacturer instructions. Briefly, exosome extraction reagent is added to cell culture media and the solution is incubated overnight at 2-8° C. Precipitated exosomes are recovered by standard centrifugation at 10,000×g for 60 min. Extracted exosomes were suspended in phosphate buffered saline (PBS) and stored at −80° C.
Detection of LC3B expression in isolated exosomes was completed using western blotting standard protocols. Briefly, gel electrophoresis was used to separate proteins by size and/or structure. Proteins were then transferred to a membrane (polyvinylidene fluoride or nitrocellulose are suitable for use) and blocked with blocking buffer to prevent non-specific antibody binding. Membranes were incubated with anti-LC3B antibody to target LC3B-I and LC3B-II. LI-COR detection (LI-COR Biotechnology, USA) was employed to visualize target proteins. LC3B protein detection was achieved by anti-LC3B rabbit monoclonal antibody (Cell Signaling Inc., USA). CD9 was used as a loading control and was detected using rabbit monoclonal antibody (Cell Signaling Inc., USA). All western blots were run on 5-15% gradient gels after estimating and unifying sample protein content by bicinchoninic acid assay (BCA).
Quantification of LC3B-I and LC3B-II by western blot was compared in U251 cells, exosomes extracted from cell media, patient peripheral blood, and HEK293 cells (FIG. 1). U251 and HEK293 cells were treated with CQ to induce exosome secretion. Both cells and exosomes extracted from cellular media were analyzed. A peripheral blood sample was obtained from a patient undergoing Gem/Carb treatment, with a −7 daily pretreatment with CQ. Exosomes were isolated from the patient's plasma sample.
In general terms: Immunoblotting shows a protein as a band on a membrane.

Assay [4] deals with LC3B. As to the kind of experiment: Western blot of LC3B in exosomes extracted from patient plasma. Type of assay: in vivo, human. The note with it: patients, Gem/Carb regimen + CQ 100 mg/day.
Description: The study included 12 patients who were included within cohorts 1-3 of the approved phase I clinical trial (ClinicalTrials.gov Identifier NCT02071537). […] All subjects were consented before treatment and sample collection. All patients were heavily pretreated with anti-cancer therapeutics, with the exception of one patient who was enrolled to receive therapy with carboplatin/gemcitabine as part of the standard-of-care, in addition to the study CQ.
All 12 patients received Gem/Carb for from one to four cycles at standard doses, wherein the first three patients of cohort one received Gem 1200 mg/m2 and the remaining three patients of cohort one received 1200 mg/m^2 (Gem dose decreased in some patients due to heavy pretreatment, in order to avoid high toxicity profile). Carboplatin was received as area under the curve (AUC) 5 and dose modifications were permitted. […] The first 6 patients received 50 mg CQ daily. When well tolerated, the dose was increased by 50 mg increments to 100 mg/day (3 patients) and 150 mg/day (3 patients). All candidates began taking CQ orally 7 days prior to chemotherapy (day −7) and continued taking CQ daily throughout four cycles of Gem/Carb. […]
Detection of LC3B expression in isolated exosomes was completed using western blotting standard protocols. […] CD9 was used as a loading control and was detected using rabbit monoclonal antibody (Cell Signaling Inc., USA). […]

`Nc1ccn([C@@H]2O[C@H](CO)[C@@H](O)C2(F)F)c(=O)n1` [Gem, gemcitabine]: in assay [1] (20 μM Gem, 16 h), the early apoptotic cells is recorded as 56.3% and the live cells came out at 29.3%. The main cell population entry in assay [1] (Gem 20 μM) is listed as “early apoptotic phase”. Further, in assay [1] (Gem 20 μM alone, 16 h), the apoptotic cells is 8.2%. Besides, the “LC3B band intensity in exosomes” value in assay [2] (Gemcitabine 20 μM alone) was “significantly less intense bands for both forms of LC3B; also recorded: comparatively less intense band”.

In the case of `CCN(CC)CCCC(C)Nc1ccnc2cc(Cl)ccc12` (stereo not drawn) [CQ, chloroquine], the apoptotic cells in assay [1] (10 μM CQ, 16 h) is 17%. Moreover, in assay [1] (20 μM CQ compared with 10 μM CQ), the “distribution of cell population” value is “decreased both live and necrotic cells in favor of early apoptotic and apoptotic cells”. The “expression of phosphatidyl serine (apoptotic cells)” value in assay [1] (CQ at both concentrations (10 μM, 20 μM), control 10%) is given as approximately 17%. For the same compound, in assay [3], the “LC3B-II band in cells” value was “prominent in both CQ-treated and CQ-untreated samples”; the “LC3B-II band in exosomes” value is recorded as “detected”. Further, in assay [3] (listed as chloroquine), the “LC3B-II band in cells” value is given as “increase in LC3B-II band thickness” and the “LC3B-II band in exosomes” value is listed as “clear LC3B-II band”. Further, the “LC3B-I bands in exosomes” value in assay [3] (exosomes from cells treated with chloroquine) is “lacks LC3B-I bands”. Moreover, the “LC3B-II expression in exosomes” value in assay [2] (CQ 50 μM) is “clear expression of LC3B-II”. The “LC3B expression in plasma extracted exosomes” value in assay [4] was “first detected at 6h, with peak detection on day 15”.
